This passage reports IC50 results from ChEMBL document CHEMBL5096165, “Histone deacetylase 2: A potential therapeutic target for cancer and neurodegenerative disorders” (Eur J Med Chem, 2021).

For one test, the target named is Histone deacetylase 5 (Homo sapiens, UniProt Q9UQL6).
For test [1], the target named is T1, Polyamine deacetylase HDAC10 (Homo sapiens, UniProt Q969S8).
T1 sequence (Q969S8 whole entry): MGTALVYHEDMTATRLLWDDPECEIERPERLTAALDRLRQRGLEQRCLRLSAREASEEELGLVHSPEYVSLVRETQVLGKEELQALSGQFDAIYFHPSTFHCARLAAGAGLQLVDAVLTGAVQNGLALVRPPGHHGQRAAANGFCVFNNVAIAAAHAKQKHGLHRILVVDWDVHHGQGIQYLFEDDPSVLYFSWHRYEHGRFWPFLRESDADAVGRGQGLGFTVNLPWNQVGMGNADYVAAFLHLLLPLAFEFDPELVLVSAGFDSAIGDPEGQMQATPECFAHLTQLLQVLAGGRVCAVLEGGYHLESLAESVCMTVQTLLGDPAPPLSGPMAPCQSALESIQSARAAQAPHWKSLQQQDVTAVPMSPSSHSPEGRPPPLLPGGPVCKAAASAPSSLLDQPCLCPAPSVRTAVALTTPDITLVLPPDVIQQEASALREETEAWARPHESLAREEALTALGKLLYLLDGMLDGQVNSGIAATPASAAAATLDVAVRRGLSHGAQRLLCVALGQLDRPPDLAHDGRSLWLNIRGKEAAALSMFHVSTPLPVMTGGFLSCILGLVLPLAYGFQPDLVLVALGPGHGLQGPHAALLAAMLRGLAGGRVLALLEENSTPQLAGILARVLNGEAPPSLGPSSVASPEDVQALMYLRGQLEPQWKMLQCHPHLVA
Description: Inhibition of HDAC10 (unknown origin)

A further test deals with Histone deacetylase 9 (Homo sapiens, UniProt Q9UKV0).
Chain of Histone deacetylase 9 (Q9UKV0 whole entry): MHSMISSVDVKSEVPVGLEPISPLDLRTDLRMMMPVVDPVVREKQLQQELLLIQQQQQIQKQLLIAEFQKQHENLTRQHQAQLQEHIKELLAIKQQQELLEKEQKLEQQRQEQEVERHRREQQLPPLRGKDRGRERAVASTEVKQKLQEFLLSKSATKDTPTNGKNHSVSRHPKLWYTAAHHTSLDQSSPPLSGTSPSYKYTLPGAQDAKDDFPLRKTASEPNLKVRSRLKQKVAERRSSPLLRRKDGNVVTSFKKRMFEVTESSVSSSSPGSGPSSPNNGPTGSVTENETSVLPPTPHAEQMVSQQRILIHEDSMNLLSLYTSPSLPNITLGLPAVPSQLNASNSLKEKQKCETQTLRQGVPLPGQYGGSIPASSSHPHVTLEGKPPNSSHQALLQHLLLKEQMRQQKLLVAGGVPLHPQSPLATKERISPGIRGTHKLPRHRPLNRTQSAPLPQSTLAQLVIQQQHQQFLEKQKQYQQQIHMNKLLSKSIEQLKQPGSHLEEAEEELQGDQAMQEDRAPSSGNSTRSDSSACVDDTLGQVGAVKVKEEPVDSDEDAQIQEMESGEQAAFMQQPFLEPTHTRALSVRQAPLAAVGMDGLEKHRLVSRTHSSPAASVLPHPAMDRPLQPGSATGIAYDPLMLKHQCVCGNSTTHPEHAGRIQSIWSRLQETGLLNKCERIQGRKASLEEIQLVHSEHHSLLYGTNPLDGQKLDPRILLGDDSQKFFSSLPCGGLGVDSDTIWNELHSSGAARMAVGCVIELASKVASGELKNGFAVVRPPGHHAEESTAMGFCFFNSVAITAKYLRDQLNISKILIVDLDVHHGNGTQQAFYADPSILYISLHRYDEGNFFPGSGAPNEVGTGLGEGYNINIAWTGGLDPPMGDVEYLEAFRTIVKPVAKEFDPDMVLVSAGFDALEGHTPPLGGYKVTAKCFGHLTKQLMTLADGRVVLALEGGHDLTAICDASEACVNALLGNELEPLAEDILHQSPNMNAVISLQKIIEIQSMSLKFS

Chain of Histone deacetylase 5 (Q9UQL6 whole entry): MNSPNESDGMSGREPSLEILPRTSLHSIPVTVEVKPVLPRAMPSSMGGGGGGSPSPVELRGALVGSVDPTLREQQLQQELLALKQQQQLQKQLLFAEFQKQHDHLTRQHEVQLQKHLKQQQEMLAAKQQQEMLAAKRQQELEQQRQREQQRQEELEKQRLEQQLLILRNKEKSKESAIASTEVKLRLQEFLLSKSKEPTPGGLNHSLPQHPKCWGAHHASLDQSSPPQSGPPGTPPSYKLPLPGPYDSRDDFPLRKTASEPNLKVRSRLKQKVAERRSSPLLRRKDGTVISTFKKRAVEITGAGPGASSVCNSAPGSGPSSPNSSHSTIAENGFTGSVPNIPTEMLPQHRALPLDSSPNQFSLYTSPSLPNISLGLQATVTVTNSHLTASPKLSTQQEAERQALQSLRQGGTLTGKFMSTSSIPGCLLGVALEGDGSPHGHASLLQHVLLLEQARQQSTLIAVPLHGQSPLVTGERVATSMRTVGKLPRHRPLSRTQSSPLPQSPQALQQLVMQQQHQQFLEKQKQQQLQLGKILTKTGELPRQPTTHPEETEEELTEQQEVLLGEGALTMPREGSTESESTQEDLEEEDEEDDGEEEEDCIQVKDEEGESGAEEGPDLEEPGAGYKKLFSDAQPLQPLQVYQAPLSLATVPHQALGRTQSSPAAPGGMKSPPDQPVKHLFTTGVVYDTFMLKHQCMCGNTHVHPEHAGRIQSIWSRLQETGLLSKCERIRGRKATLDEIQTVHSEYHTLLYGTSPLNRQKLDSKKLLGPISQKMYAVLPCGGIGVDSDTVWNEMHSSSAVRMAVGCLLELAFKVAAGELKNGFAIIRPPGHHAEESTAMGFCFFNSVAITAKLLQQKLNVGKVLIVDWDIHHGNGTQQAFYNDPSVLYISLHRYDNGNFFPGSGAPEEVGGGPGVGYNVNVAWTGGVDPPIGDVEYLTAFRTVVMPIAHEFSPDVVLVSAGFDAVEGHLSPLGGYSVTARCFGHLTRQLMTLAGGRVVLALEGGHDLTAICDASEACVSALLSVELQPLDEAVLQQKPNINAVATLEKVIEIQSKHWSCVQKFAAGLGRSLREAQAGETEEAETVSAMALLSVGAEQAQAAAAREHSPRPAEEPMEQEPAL
Description for Histone deacetylase 5: Inhibition of HDAC5 (unknown origin)
Description for Histone deacetylase 9: Inhibition of HDAC9 (unknown origin)

In the case of `Cn1cc(CNCC2CCN(c3ncc(C(=O)NO)cn3)CC2)c2ccccc21` [QUISINOSTAT], the half-inhibitory concentration (IC50) against Histone deacetylase 5 stood at 0.00369 µM; in test [1], 0.00046 µM.
Turning to `Cn1cc(-c2ccc(S(=O)(=O)n3ccc(/C=C/C(=O)Nc4ccccc4N)c3)cc2)cn1` [DOMATINOSTAT], the IC50 against Histone deacetylase 9 stood at 50 µM; in test [1] it was 21 µM.
